According to PubChem BioAssay AID228 (DTP/NCI, 2004):
Several values for one entry are separate records, joined by “and”; a condition that tells them apart may be missing. Equal entries are not always repeated. Inconclusive results are not listed. Starred links: 1 amine or outer side, 2 acyl side, 3 side chain; linkers in the order of their positions; H or OH if unused. Positions of bridges follow the written chain, without caps; N, C: chain ends. Non-standard residues stand in square brackets, D forms with d. Residues, ends and D or L forms follow the SMILES beside them. Chains are numbered I, II in the order given. Actinocin(9to1) = Cc1c2oc3c(C)ccc(C(=O)[*:1])c3nc-2c(C(=O)[*:2])c(N)c1=O; aThr = C[C@H](O)[C@H](N)C(=O)O; NMeV = CN[C@H](C(=O)O)C(C)C; Sar = CNCC(=O)O

Tested on: BDF1 mice, Friend leukemia sc, tumor weight T/C
Assay: NCI In Vivo Anticancer Drug Screen. Data for tumor model Friend Virus Leukemia (Solid) (subcutaneous) in B6D2F1 (BDF1) mice
Conditions: endpoint: mean tumor weight, higher = larger tumour
Description: The antitumor activity of compounds was measured in mice bearing transplantable tumors. Survival or tumor size were measured and the results are expressed as the measurement made in the treated group (T) divided by the measurement made in the vehicle treated control group (C). The tumor model used in this assay is Friend Virus Leukemia (Solid) (subcutaneous) in B6D2F1 (BDF1) mice

[1] = dose: 125.0 mg/kg/injection, schedule: Q01DX011 (ip), vehicle: carboxymethylcellulose (CMC)
[2] = dose: 500.0 mg/kg/injection, schedule: Q01DX011 (ip), vehicle: carboxymethylcellulose (CMC)
[3] = dose: 40.0 mg/kg/injection, schedule: Q01DX011 (ip), vehicle: carboxymethylcellulose (CMC)
[4] = dose: 80.0 mg/kg/injection, schedule: Q01DX011 (ip), vehicle: carboxymethylcellulose (CMC)
[5] = dose: 6.25 mg/kg/injection, schedule: Q01DX011 (ip), vehicle: carboxymethylcellulose (CMC)
[6] = dose: 0.5 mg/kg/injection, schedule: Q01DX011 (ip), vehicle: carboxymethylcellulose (CMC)
[7] = dose: 75.0 mg/kg/injection, schedule: Q01DX011 (ip), vehicle: saline
[8] = dose: 3.0 mg/kg/injection, schedule: Q01DX011 (ip), vehicle: carboxymethylcellulose (CMC)
[9] = dose: 6.0 mg/kg/injection, schedule: Q01DX011 (ip), vehicle: carboxymethylcellulose (CMC)
[10] = dose: 100.0 mg/kg/injection, schedule: Q01DX011 (ip), vehicle: carboxymethylcellulose (CMC)
[11] = dose: 2.0 mg/kg/injection, schedule: Q01DX011 (ip), vehicle: carboxymethylcellulose (CMC)
[12] = dose: 4.0 mg/kg/injection, schedule: Q01DX011 (ip), vehicle: carboxymethylcellulose (CMC)
[13] = dose: 125.0 mg/kg/injection, schedule: Q#A X022 (ip), vehicle: carboxymethylcellulose (CMC)
[14] = dose: 250.0 mg/kg/injection, schedule: Q#A X022 (ip), vehicle: carboxymethylcellulose (CMC)

Q: With O=C(Nc1ccc(C2=NCCN2)cc1)c1ccc(C(=O)Nc2ccc(C3=NCCN3)cc2)c(NC(=O)c2ccc(C(=O)Nc3cc(C(=O)Nc4ccc(C5=NCCN5)cc4)ccc3C(=O)Nc3ccc(C4=NCCN4)cc3)cc2)c1 as the molecule, how does the T/C [1] read?
A: 161 % of control

Q: And the T/C [2]?
A: 115 % of control

Q: Which results are given for C[C@]12CC[C@@H]3c4ccc(OC(=O)c5ccccc5)cc4CC[C@H]3[C@@H]1CC[C@@H]2O?
A: T/C (dose: 77.25 mg/kg/injection, schedule: Q01DX011 (sc), vehicle: steriod suspending solution): 102 % of control; T/C (dose: 154.5 mg/kg/injection, schedule: Q01DX011 (sc), vehicle: steriod suspending solution): 112 % of control

Q: How did the T/C [3] turn out when CCCC(Sc1nc(N)nc2nc[nH]c12)C(=O)O (stereo not drawn) was run?
A: 77 % of control

Q: And the T/C [4]?
A: 45 % of control

Q: What about the T/C (dose: 160.0 mg/kg/injection, schedule: Q01DX011 (ip), vehicle: carboxymethylcellulose (CMC)) of the same molecule?
A: 5 % of control

Q: What does the source list for CSc1ncc(Br)c(Sc2nc(N)nc3nc[nH]c23)n1?
A: T/C (dose: 3.12 mg/kg/injection, schedule: Q01DX011 (ip), vehicle: carboxymethylcellulose (CMC)): 92 % of control; T/C [5]: 81 % of control; T/C (dose: 12.5 mg/kg/injection, schedule: Q01DX011 (ip), vehicle: carboxymethylcellulose (CMC)): 51 % of control

Q: How did the T/C (dose: 0.06 mg/kg/injection, schedule: Q01DX011 (ip), vehicle: carboxymethylcellulose (CMC)) turn out when CO[C@@]12[C@H](COC(N)=O)C3=C(C(=O)C(C)=C(N)C3=O)N1C[C@@H]1N[C@@H]12 was run?
A: 48 % of control

Q: And the T/C (dose: 0.1 mg/kg/injection, schedule: Q01DX011 (ip), vehicle: carboxymethylcellulose (CMC))?
A: 66 % of control

Q: And the T/C (dose: 0.13 mg/kg/injection, schedule: Q01DX011 (ip), vehicle: carboxymethylcellulose (CMC))?
A: 56 % of control

Q: What about the T/C (dose: 0.2 mg/kg/injection, schedule: Q01DX011 (ip), vehicle: carboxymethylcellulose (CMC)) of the same molecule?
A: 77 % of control

Q: And the T/C (dose: 0.25 mg/kg/injection, schedule: Q01DX011 (ip), vehicle: carboxymethylcellulose (CMC))?
A: 35 % of control and 45 % of control

Q: What about the T/C (dose: 0.4 mg/kg/injection, schedule: Q01DX011 (ip), vehicle: carboxymethylcellulose (CMC)) of the same molecule?
A: 100 % of control

Q: And the T/C [6]?
A: 28 % of control

Q: And the T/C (dose: 0.8 mg/kg/injection, schedule: Q01DX011 (ip), vehicle: carboxymethylcellulose (CMC))?
A: 75 % of control

Q: Which T/C (dose: 0.03 mg/kg/injection, schedule: Q01DX011 (ip), vehicle: carboxymethylcellulose (CMC)) does the source give for Cc1c2oc3c(C)ccc(C(=O)N[C@@H]4C(=O)N[C@H](C(C)C)C(=O)N5CCC[C@H]5C(=O)N(C)CC(=O)N(C)[C@@H](C(C)C)C(=O)O[C@H]4C)c3nc-2c(C(=O)N[C@@H]2C(=O)N[C@H](C(C)C)C(=O)N3CCC[C@H]3C(=O)N(C)CC(=O)N(C)[C@@H](C(C)C)C(=O)O[C@H]2C)c(N)c1=O (I: [aThr][dV]P[Sar][NMeV] / II: [aThr][dV]P[Sar][NMeV]; ester I:1-I:C, II:1-II:C; linker I:N-II:N via Actinocin(9to1)) here?
A: 86 % of control

Q: And the T/C (dose: 0.05 mg/kg/injection, schedule: Q01DX011 (ip), vehicle: carboxymethylcellulose (CMC))?
A: 38 % of control and 49 % of control

Q: And the T/C (dose: 0.08 mg/kg/injection, schedule: Q01DX011 (ip), vehicle: carboxymethylcellulose (CMC))?
A: 29 % of control

Q: What about the T/C (dose: 6.0 micrograms/kg/injection, schedule: Q01DX011 (ip), vehicle: carboxymethylcellulose (CMC)) of the same molecule?
A: 102 % of control

Q: What about the T/C (dose: 13.0 micrograms/kg/injection, schedule: Q01DX011 (ip), vehicle: carboxymethylcellulose (CMC)) of the same molecule?
A: 93 % of control

Q: And the T/C (dose: 20.0 micrograms/kg/injection, schedule: Q01DX011 (ip), vehicle: carboxymethylcellulose (CMC))?
A: 55 % of control

Q: What about the T/C (dose: 33.0 micrograms/kg/injection, schedule: Q01DX011 (ip), vehicle: carboxymethylcellulose (CMC)) of the same molecule?
A: 105 % of control

Q: Which results are given for Cc1cc2nc3c(=O)[nH]c(=O)nc-3n(CC(O)C(O)C(O)C(O)CO)c2cc1C (stereo not drawn)?
A: T/C (dose: 56.0 mg/kg/injection, schedule: Q01DX011 (ip), vehicle: carboxymethylcellulose (CMC)): 103 % of control; T/C (dose: 113.0 mg/kg/injection, schedule: Q01DX011 (ip), vehicle: carboxymethylcellulose (CMC)): 110 % of control

Q: How did the T/C (dose: 37.5 mg/kg/injection, schedule: Q01DX011 (ip), vehicle: saline) turn out when COc1ccc2c3c1OC1C(O)C=CC4C(C2)N(C)CCC341 (stereo not drawn) was run?
A: 93 % of control

Q: What about the T/C (dose: 50.0 mg/kg/injection, schedule: Q01DX011 (ip), vehicle: saline) of the same molecule?
A: 119 % of control

Q: What about the T/C [7] of the same molecule?
A: 108 % of control

Q: Which results are given for CCOC(=O)NC?
A: T/C [7]: 114 % of control; T/C (dose: 150.0 mg/kg/injection, schedule: Q01DX011 (ip), vehicle: saline): 98 % of control; T/C (dose: 300.0 mg/kg/injection, schedule: Q01DX011 (ip), vehicle: saline): 75 % of control; T/C (dose: 500.0 mg/kg/injection, schedule: Q01DX011 (ip), vehicle: saline): 48 % of control; T/C (dose: 600.0 mg/kg/injection, schedule: Q01DX011 (ip), vehicle: saline): 53 % of control; T/C (dose: 750.0 mg/kg/injection, schedule: Q01DX011 (ip), vehicle: saline): 37 % of control

Q: For ClCCn1cnc2c(SCc3ccccc3Cl)ncnc21, which T/C [8] is on record?
A: 72 % of control

Q: What about the T/C [9] of the same molecule?
A: 81 % of control

Q: And the T/C (dose: 12.0 mg/kg/injection, schedule: Q01DX011 (ip), vehicle: carboxymethylcellulose (CMC))?
A: 77 % of control

Q: What about the T/C (dose: 25.0 mg/kg/injection, schedule: Q01DX011 (ip), vehicle: carboxymethylcellulose (CMC)) of the same molecule?
A: 36 % of control

Q: What about the T/C (dose: 50.0 mg/kg/injection, schedule: Q01DX011 (ip), vehicle: carboxymethylcellulose (CMC)) of the same molecule?
A: 43 % of control

Q: And the T/C [10]?
A: 43 % of control

Q: What about the T/C (dose: 200.0 mg/kg/injection, schedule: Q01DX011 (ip), vehicle: carboxymethylcellulose (CMC)) of the same molecule?
A: 10 % of control and 25 % of control

Q: What about the T/C (dose: 400.0 mg/kg/injection, schedule: Q01DX011 (ip), vehicle: carboxymethylcellulose (CMC)) of the same molecule?
A: 16 % of control

Q: What does the source list for CC(CCC(C)OS(C)(=O)=O)OS(C)(=O)=O (stereo not drawn)?
A: T/C [6]: 82 % of control; T/C (dose: 1.0 mg/kg/injection, schedule: Q01DX011 (ip), vehicle: carboxymethylcellulose (CMC)): 91 % of control; T/C [11]: 103 % of control; T/C [12]: 105 % of control; T/C [9]: 98 % of control; T/C [5]: 56 % of control

Q: What does the source list for O=C1C=CC(=O)O1 (tested in a mixture with another compound)?
A: T/C (dose: 7.5 mg/kg/injection, schedule: Q#A X022 (ip), vehicle: carboxymethylcellulose (CMC)): 58 % of control; T/C (dose: 15.5 mg/kg/injection, schedule: Q#A X022 (ip), vehicle: carboxymethylcellulose (CMC)): 84 % of control; T/C [13]: 96 % of control; T/C [14]: 33 % of control

Q: How did the T/C [11] turn out when Cc1nc(N2CC2)nc(N2CC2)c1[N+](=O)[O-] was run?
A: 70 % of control

Q: And the T/C [8]?
A: 39 % of control

Q: What about the T/C [12] of the same molecule?
A: 41 % of control

Q: And the T/C [9]?
A: 63 % of control and 40 % of control

Q: What does the source list for c1ccc(CSc2ncnc3nc[nH]c23)nc1?
A: T/C [11]: 88 % of control; T/C [12]: 46 % of control; T/C (dose: 9.0 mg/kg/injection, schedule: Q01DX011 (ip), vehicle: carboxymethylcellulose (CMC)): 33 % of control and 39 % of control; T/C (dose: 18.0 mg/kg/injection, schedule: Q01DX011 (ip), vehicle: carboxymethylcellulose (CMC)): 3 % of control and 7 % of control; T/C (dose: 37.0 mg/kg/injection, schedule: Q01DX011 (ip), vehicle: carboxymethylcellulose (CMC)): 6 % of control and 18 % of control

Q: What does the source list for NC(=O)/C=C\C(=O)O (tested in a mixture with another compound)?
A: T/C (dose: 31.0 mg/kg/injection, schedule: Q#A X022 (ip), vehicle: carboxymethylcellulose (CMC)): 85 % of control; T/C (dose: 62.5 mg/kg/injection, schedule: Q#A X022 (ip), vehicle: carboxymethylcellulose (CMC)): 75 % of control; T/C [13]: 65 % of control; T/C [14]: 58 % of control

Q: How did the T/C [10] turn out when CC(CCc1cccc2ccccc12)(C(=O)O)C(=O)O was run?
A: 92 % of control

Q: How did the T/C [1] turn out when CCCCSc1nc(N)nc2c1ncn2CC(C)CC (stereo not drawn) was run?
A: 68 % of control

Q: And the T/C (dose: 250.0 mg/kg/injection, schedule: Q01DX011 (ip), vehicle: carboxymethylcellulose (CMC))?
A: 75 % of control

Q: And the T/C [2]?
A: 23 % of control

Q: Which results are given for CS(=O)(=O)OCC(=O)NCCNC(=O)COS(C)(=O)=O?
A: T/C (dose: 20.0 mg/kg/injection, schedule: Q01DX011 (ip), vehicle: carboxymethylcellulose (CMC)): 93 % of control; T/C (dose: 31.0 mg/kg/injection, schedule: Q01DX011 (ip), vehicle: saline): 110 % of control; T/C [3]: 101 % of control; T/C (dose: 62.0 mg/kg/injection, schedule: Q01DX011 (ip), vehicle: saline): 108 % of control; T/C [4]: 52 % of control; T/C (dose: 125.0 mg/kg/injection, schedule: Q01DX011 (ip), vehicle: saline): 89 % of control; T/C (dose: 250.0 mg/kg/injection, schedule: Q01DX011 (ip), vehicle: saline): 60 % of control
